Source: ChEMBL document CHEMBL1151687, “Search for alpha-helical propensity in the receptor-bound conformation of glucagon-like peptide-1” (Bioorg Med Chem, 2008)
Positions of bridges follow the written chain, without caps; N, C: chain ends. Residues, ends and D or L forms follow the SMILES beside them.

Legend:
[1] = molecular target: T1, Glucagon-like peptide 1 receptor (Homo sapiens, UniProt P43220); experiment: Displacement of [125I]exendin(9-39) from human GLP1R expressed in HEK293 cells; format: cell-based
[2] = molecular target: T1, Glucagon-like peptide 1 receptor; experiment: Activation of human GLP1R expressed in HEK293 cells assessed as effect on cAMP responsive element promoter driven luciferase expression; format: functional, cell-based

T1 sequence (P43220 whole entry): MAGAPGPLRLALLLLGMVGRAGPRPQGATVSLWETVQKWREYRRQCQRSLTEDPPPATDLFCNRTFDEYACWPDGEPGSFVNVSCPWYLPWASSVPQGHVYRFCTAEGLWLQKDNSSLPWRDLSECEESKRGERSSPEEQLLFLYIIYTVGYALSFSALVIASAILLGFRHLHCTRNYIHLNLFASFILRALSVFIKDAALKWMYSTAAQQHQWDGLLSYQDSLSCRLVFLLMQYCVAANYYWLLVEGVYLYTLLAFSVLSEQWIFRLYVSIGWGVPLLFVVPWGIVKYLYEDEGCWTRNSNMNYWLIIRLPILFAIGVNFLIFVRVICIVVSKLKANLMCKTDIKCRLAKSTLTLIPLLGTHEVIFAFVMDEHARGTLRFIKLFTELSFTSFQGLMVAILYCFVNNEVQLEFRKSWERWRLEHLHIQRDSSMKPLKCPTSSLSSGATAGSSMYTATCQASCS

SMILES	IC50 [1]	EC50 [2]	IC50 ([1]; hek293)	EC50 ([2]; hek293)
CC[C@H](C)[C@H](NC(=O)[C@H](Cc1ccccc1)NC(=O)[C@H](CCC(=O)O)NC(=O)[C@H](CCCCN)NC(=O)[C@H](C)NC(=O)[C@H](C)NC(=O)[C@H](CCC(N)=O)NC(=O)[C@@H]1CCC(=O)NCCCC[C@H](NC(=O)[C@H](CO)NC(=O)[C@@H](NC(=O)[C@H](CC(=O)O)NC(=O)[C@H](CO)NC(=O)[C@@H](NC(=O)[C@H](Cc2ccccc2)NC(=O)[C@@H](NC(=O)CNC(=O)[C@H](CCC(=O)O)NC(=O)[C@H](C)NC(=O)[C@@H](N)Cc2cnc[nH]2)[C@@H](C)O)[C@@H](C)O)C(C)C)C(=O)N[C@@H](Cc2ccc(O)cc2)C(=O)N[C@@H](CC(C)C)C(=O)N[C@@H](CCC(=O)O)C(=O)N1)C(=O)N[C@@H](C)C(=O)N[C@@H](Cc1c[nH]c2ccccc12)C(=O)N[C@@H](CC(C)C)C(=O)N[C@H](C(=O)N[C@@H](CCCCN)C(=O)NCC(=O)N[C@@H](CCCN=C(N)N)C(N)=O)C(C)C (H-HAEGTFTSDVSKYLEEQAAKEFIAWLVKGR-NH2; lactam 12-16)	15.1 nM	0.002 nM	–	–
CC[C@H](C)[C@H](NC(=O)[C@H](Cc1ccccc1)NC(=O)[C@H](CCC(=O)O)NC(=O)[C@H](CCCCN)NC(=O)[C@H](C)NC(=O)[C@@H]1CCC(=O)NCCCC[C@H](NC(=O)[C@H](Cc2ccc(O)cc2)NC(=O)[C@H](CO)NC(=O)[C@H](CO)NC(=O)[C@@H](NC(=O)[C@H](CC(=O)O)NC(=O)[C@H](CO)NC(=O)[C@@H](NC(=O)[C@H](Cc2ccccc2)NC(=O)[C@@H](NC(=O)CNC(=O)[C@H](CCC(=O)O)NC(=O)[C@H](C)NC(=O)[C@@H](N)Cc2cnc[nH]2)[C@@H](C)O)[C@@H](C)O)C(C)C)C(=O)N[C@@H](CCC(=O)O)C(=O)NCC(=O)N[C@@H](CCC(N)=O)C(=O)N1)C(=O)N[C@@H](C)C(=O)N[C@@H](Cc1c[nH]c2ccccc12)C(=O)N[C@@H](CC(C)C)C(=O)N[C@H](C(=O)N[C@@H](CCCCN)C(=O)NCC(=O)N[C@@H](CCCNC(=N)N)C(N)=O)C(C)C (H-HAEGTFTSDVSSYKEGQEAKEFIAWLVKGR-NH2; lactam 14-18)	–	–	3000 nM	0.36 nM
CC[C@H](C)[C@H](NC(=O)[C@H](Cc1ccccc1)NC(=O)[C@H](CCC(=O)O)NC(=O)[C@H](CCCCN)NC(=O)[C@@H]1CCC(=O)NCCCC[C@H](NC(=O)[C@H](CC(C)C)NC(=O)[C@H](Cc2ccc(O)cc2)NC(=O)[C@H](CO)NC(=O)[C@H](CO)NC(=O)[C@@H](NC(=O)[C@H](CC(=O)O)NC(=O)[C@H](CO)NC(=O)[C@@H](NC(=O)[C@H](Cc2ccccc2)NC(=O)[C@@H](NC(=O)CNC(=O)[C@H](CCC(=O)O)NC(=O)[C@H](C)NC(=O)[C@@H](N)Cc2cnc[nH]2)[C@@H](C)O)[C@@H](C)O)C(C)C)C(=O)NCC(=O)N[C@@H](CCC(N)=O)C(=O)N[C@@H](C)C(=O)N1)C(=O)N[C@@H](C)C(=O)N[C@@H](Cc1c[nH]c2ccccc12)C(=O)N[C@@H](CC(C)C)C(=O)N[C@H](C(=O)N[C@@H](CCCCN)C(=O)NCC(=O)N[C@@H](CCCNC(=N)N)C(N)=O)C(C)C (H-HAEGTFTSDVSSYLKGQAEKEFIAWLVKGR-NH2; lactam 15-19)	–	–	9200 nM	1.1 nM

Second part, the compound after the results:

IC50 [1]	EC50 [2]	IC50 ([1]; hek293)	EC50 ([2]; hek293)	SMILES
17 nM	0.0038 nM	–	–	CC[C@H](C)[C@H](NC(=O)[C@H](CCC(=O)O)NC(=O)[C@H](CCCCN)NC(=O)[C@H](C)NC(=O)[C@H](C)NC(=O)[C@H](CCC(N)=O)NC(=O)[C@H](CCC(N)=O)NC(=O)[C@H](CCC(=O)O)NC(=O)[C@H](CC(C)C)NC(=O)[C@H](Cc1ccc(O)cc1)NC(=O)[C@H](CCCCNC(C)=O)NC(=O)[C@H](CO)NC(=O)[C@@H](NC(=O)[C@H](CC(=O)O)NC(=O)[C@H](CO)NC(=O)[C@@H](NC(=O)[C@H](Cc1ccccc1)NC(=O)[C@@H](NC(=O)CNC(=O)[C@H](CCC(=O)O)NC(=O)[C@H](C)NC(=O)[C@@H](N)Cc1cnc[nH]1)[C@@H](C)O)[C@@H](C)O)C(C)C)C(=O)N[C@@H](Cc1ccccc1)C(=O)N[C@@H](C)C(=O)N[C@@H](Cc1c[nH]c2ccccc12)C(=O)N[C@@H](CC(C)C)C(=O)N[C@H](C(=O)N[C@@H](CCCCN)C(=O)NCC(=O)N[C@@H](CCCNC(=N)N)C(N)=O)C(C)C (H-HAEGTFTSDVSK(Ac)YLEQQAAKEIFAWLVKGR-NH2)
1200 nM	0.1 nM	–	–	CC[C@H](C)[C@H](NC(=O)[C@H](CCC(=O)O)NC(=O)[C@H](CCCCN)NC(=O)[C@H](C)NC(=O)[C@H](CCC(N)=O)NC(=O)[C@H](CCC(N)=O)NC(=O)CNC(=O)[C@H](CCC(=O)O)NC(=O)[C@H](CCCCNC(C)=O)NC(=O)[C@H](Cc1ccc(O)cc1)NC(=O)[C@H](CO)NC(=O)[C@H](CO)NC(=O)[C@@H](NC(=O)[C@H](CC(=O)O)NC(=O)[C@H](CO)NC(=O)[C@@H](NC(=O)[C@H](Cc1ccccc1)NC(=O)[C@@H](NC(=O)CNC(=O)[C@H](CCC(=O)O)NC(=O)[C@H](C)NC(=O)[C@@H](N)Cc1cnc[nH]1)[C@@H](C)O)[C@@H](C)O)C(C)C)C(=O)N[C@@H](Cc1ccccc1)C(=O)N[C@@H](C)C(=O)N[C@@H](Cc1c[nH]c2ccccc12)C(=O)N[C@@H](CC(C)C)C(=O)N[C@H](C(=O)N[C@@H](CCCCN)C(=O)NCC(=O)N[C@@H](CCCNC(=N)N)C(N)=O)C(C)C (H-HAEGTFTSDVSSYK(Ac)EGQQAKEIFAWLVKGR-NH2)
–	–	2.6 nM	0.0036 nM	CC[C@H](C)[C@H](NC(=O)[C@H](CCC(=O)O)NC(=O)[C@H](CCCCN)NC(=O)[C@H](C)NC(=O)[C@H](C)NC(=O)[C@H](CCC(N)=O)NC(=O)CNC(=O)[C@H](CCC(=O)O)NC(=O)[C@H](CC(C)C)NC(=O)[C@H](Cc1ccc(O)cc1)NC(=O)[C@H](CO)NC(=O)[C@H](CO)NC(=O)[C@@H](NC(=O)[C@H](CC(=O)O)NC(=O)[C@H](CO)NC(=O)[C@@H](NC(=O)[C@H](Cc1ccccc1)NC(=O)[C@@H](NC(=O)CNC(=O)[C@H](CCC(=O)O)NC(=O)[C@H](C)NC(=O)[C@@H](N)Cc1cnc[nH]1)[C@@H](C)O)[C@@H](C)O)C(C)C)C(=O)N[C@@H](Cc1ccccc1)C(=O)N[C@@H](C)C(=O)N[C@@H](Cc1c[nH]c2ccccc12)C(=O)N[C@@H](CC(C)C)C(=O)N[C@H](C(=O)N[C@@H](CCCCN)C(=O)NCC(=O)N[C@@H](CCCN=C(N)N)C(=O)O)C(C)C (H-HAEGTFTSDVSSYLEGQAAKEIFAWLVKGR-OH)
1600 nM	0.12 nM	–	–	CC[C@H](C)[C@H](NC(=O)[C@H](CCC(=O)O)NC(=O)[C@H](CCCCN)NC(=O)[C@H](CCC(N)=O)NC(=O)[C@H](C)NC(=O)[C@H](CCC(N)=O)NC(=O)CNC(=O)[C@H](CCCCNC(C)=O)NC(=O)[C@H](CC(C)C)NC(=O)[C@H](Cc1ccc(O)cc1)NC(=O)[C@H](CO)NC(=O)[C@H](CO)NC(=O)[C@@H](NC(=O)[C@H](CC(=O)O)NC(=O)[C@H](CO)NC(=O)[C@@H](NC(=O)[C@H](Cc1ccccc1)NC(=O)[C@@H](NC(=O)CNC(=O)[C@H](CCC(=O)O)NC(=O)[C@H](C)NC(=O)[C@@H](N)Cc1cnc[nH]1)[C@@H](C)O)[C@@H](C)O)C(C)C)C(=O)N[C@@H](Cc1ccccc1)C(=O)N[C@@H](C)C(=O)N[C@@H](Cc1c[nH]c2ccccc12)C(=O)N[C@@H](CC(C)C)C(=O)N[C@H](C(=O)N[C@@H](CCCCN)C(=O)NCC(=O)N[C@@H](CCCNC(=N)N)C(N)=O)C(C)C (H-HAEGTFTSDVSSYLK(Ac)GQAQKEIFAWLVKGR-NH2)
